Measured values as given in ChEMBL document CHEMBL5046318, “Development of 6-Methanesulfonyl-8-nitrobenzothiazinone Based Antitubercular Agents” (ACS Med Chem Lett, 2022).
pIC50: −log10 of the molar value. ≈ marks a conversion by molar mass, not a printed value.

Assays:
[1] = test system: Mycobacterium tuberculosis; experiment: Antitubercular activity against Mycobacterium tuberculosis H37Rv assessed as bacterial growth inhibition incubated for […] by MABA assay; assay type: functional
[2] = molecular target: T1, Decaprenylphosphoryl-beta-D-ribose oxidase (Mycobacterium tuberculosis (strain ATCC 25618 / H37Rv), UniProt P9WJF1); experiment: Inhibition of Mycobacterium tuberculosis H37Rv recombinant DprE1 expressed in Escherichia coli assessed as formation of resorufin using FPR as substrate by Amplex Red hydrogen/peroxidase coupled assay
T1 sequence (P9WJF1 whole entry): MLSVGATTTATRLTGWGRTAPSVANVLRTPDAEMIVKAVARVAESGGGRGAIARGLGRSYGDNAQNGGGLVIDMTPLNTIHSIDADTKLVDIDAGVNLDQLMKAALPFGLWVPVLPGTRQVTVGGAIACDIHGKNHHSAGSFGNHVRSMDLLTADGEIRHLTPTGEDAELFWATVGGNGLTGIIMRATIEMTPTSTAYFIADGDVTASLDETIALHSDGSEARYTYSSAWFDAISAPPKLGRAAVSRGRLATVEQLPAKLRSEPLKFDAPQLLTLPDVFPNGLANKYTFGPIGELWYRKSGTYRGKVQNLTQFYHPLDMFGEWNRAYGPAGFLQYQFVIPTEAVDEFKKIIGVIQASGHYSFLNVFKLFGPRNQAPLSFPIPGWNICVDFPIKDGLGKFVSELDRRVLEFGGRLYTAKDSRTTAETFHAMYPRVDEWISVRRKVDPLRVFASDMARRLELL

[3] = Plasma protein binding in human; assay type: ADME, cell-free; settings: read-out: PPB (converted)
[4] = Metabolic stability in human liver microsomes assessed as half life at 1 uM preincubated for 10 mins followed by NADPH addition and further incubated upto 60 mins by LC-MS/MS analysis; assay type: ADME, Microsome; settings: time 70 min
[5] = Metabolic stability in mouse liver microsomes assessed as half life at 1 uM preincubated for 10 mins followed by NADPH addition and further incubated upto 60 mins by LC-MS/MS analysis; assay type: ADME, Microsome; settings: time 70 min
[6] = Metabolic stability in human liver microsomes assessed as intrinsic clearance at 1 uM preincubated for 10 mins followed by NADPH addition and further incubated upto 60 mins by LC-MS/MS analysis; assay type: ADME, Microsome; settings: time 70 min, read-out: CLH
[7] = Metabolic stability in mouse liver microsomes assessed as intrinsic clearance at 1 uM preincubated for 10 mins followed by NADPH addition and further incubated upto 60 mins by LC-MS/MS analysis; assay type: ADME, Microsome; settings: time 70 min, read-out: CLH
[8] = Thermodynamic solubility of compound at pH 7.4 aqueous phosphate buffer; assay type: physicochemical; settings: read-out: Therm_solubility

## CS(=O)(=O)c1cc([N+](=O)[O-])c2sc(N3CCN(CC4CCCCC4)CC3)nc(=O)c2c1
[1]
  MIC: 0.01 µM (≈ 0.00467 µg/mL)
[2]
  pIC50: 7.30
[3]
  fraction unbound: 0.025
[4]
  half-life at 1 µM: 28.8 min
[5]
  half-life at 1 µM: 42.1 min
[6]
  CLint scaled at 1 µM: 60.5 mL/min/kg
[7]
  CLint scaled at 1 µM: 129 mL/min/kg

## CS(=O)(=O)c1cc([N+](=O)[O-])c2sc(N3CCN(CC4CCCCC4)C4(CC4)C3)nc(=O)c2c1
[1]
  MIC: 0.04 µM (≈ 0.0197 µg/mL)
[2]
  pIC50: 5.41
[8]
  solubility thermodynamic: 0.7 µg/mL (≈ 1.42 µM)
[3]
  fraction unbound: 0.016
[4]
  half-life at 1 µM: 22.6 min
[5]
  half-life at 1 µM: 33.5 min
[6]
  CLint scaled at 1 µM: 77 mL/min/kg
[7]
  CLint scaled at 1 µM: 163 mL/min/kg

## CS(=O)(=O)c1cc([N+](=O)[O-])c2sc(N3CCN(S(=O)(=O)C4CC4)CC3)nc(=O)c2c1
[1]
  MIC: 0.3 µM (≈ 0.142 µg/mL)
[2]
  pIC50: 5.15

## CS(=O)(=O)c1cc([N+](=O)[O-])c2sc(N3CCCN(S(=O)(=O)c4ccccc4)CC3)nc(=O)c2c1
[1]
  MIC: > 3.5 µM

## CC(C)CN1CCCN(c2nc(=O)c3cc(S(C)(=O)=O)cc([N+](=O)[O-])c3s2)CC1
[1]
  MIC: 0.07 µM (≈ 0.0308 µg/mL)
[2]
  pIC50: 5.89

## CS(=O)(=O)c1cc([N+](=O)[O-])c2sc(N3CCN(Cc4cccs4)CC3)nc(=O)c2c1
[1]
  MIC: 0.25 µM (≈ 0.117 µg/mL)

## CS(=O)(=O)c1cc([N+](=O)[O-])c2sc(N3CCN(C(=O)c4ccccc4)CC3)nc(=O)c2c1
[1]
  MIC: > 64 µM

## CS(=O)(=O)c1cc([N+](=O)[O-])c2sc(N3CCN(CC4CCC(F)(F)CC4)CC3)nc(=O)c2c1
[1]
  MIC: 0.03 µM (≈ 0.0151 µg/mL)
[2]
  pIC50: 5.96
[8]
  solubility thermodynamic: 0.81 µg/mL (≈ 1.61 µM)
[3]
  fraction unbound: 0.021
[4]
  half-life at 1 µM: 38.6 min
[5]
  half-life at 1 µM: 59 min
[6]
  CLint scaled at 1 µM: 45.1 mL/min/kg
[7]
  CLint scaled at 1 µM: 92.4 mL/min/kg

## CS(=O)(=O)c1cc([N+](=O)[O-])c2sc(N3CCN(CC4CCOCC4)CC3)nc(=O)c2c1
[1]
  MIC: 0.51 µM (≈ 0.239 µg/mL)
[2]
  pIC50: 4.99

## CS(=O)(=O)c1cc([N+](=O)[O-])c2sc(N3CCN(CC4CCC(C(F)(F)F)CC4)CC3)nc(=O)c2c1 (configuration not stated)
[1]
  MIC: 1.87 µM (≈ 1 µg/mL)

## CS(=O)(=O)c1cc([N+](=O)[O-])c2sc(N3CCCN(S(=O)(=O)C4CC4)CC3)nc(=O)c2c1
[1]
  MIC: 0.94 µM (≈ 0.459 µg/mL)
[2]
  pIC50: 4.78

## CC(C)CCN1CCCN(c2nc(=O)c3cc(S(C)(=O)=O)cc([N+](=O)[O-])c3s2)CC1
[1]
  MIC: 0.49 µM (≈ 0.223 µg/mL)

## CS(=O)(=O)c1cc([N+](=O)[O-])c2sc(N3CCN(CC4CCSCC4)CC3)nc(=O)c2c1
[1]
  MIC: 0.1 µM (≈ 0.0485 µg/mL)

## CS(=O)(=O)c1cc([N+](=O)[O-])c2sc(N3CCCN(CC4CCCCC4)CC3)nc(=O)c2c1
[1]
  MIC: 0.07 µM (≈ 0.0336 µg/mL)
[2]
  pIC50: 5.96

## CS(=O)(=O)c1cc([N+](=O)[O-])c2sc(N3CCCN(CC4CCCC4)CC3)nc(=O)c2c1
[1]
  MIC: 0.15 µM (≈ 0.07 µg/mL)
[2]
  pIC50: 5.36

## CS(=O)(=O)c1cc([N+](=O)[O-])c2sc(N3CCN(CC4CCCCC4)C(=O)C3)nc(=O)c2c1
[1]
  MIC: 0.07 µM (≈ 0.0336 µg/mL)

## CCS(=O)(=O)N1CCCN(c2nc(=O)c3cc(S(C)(=O)=O)cc([N+](=O)[O-])c3s2)CC1
[1]
  MIC: > 2 µM

## CS(=O)(=O)c1cc([N+](=O)[O-])c2sc(N3CCN(C(=O)C4CCCCC4)CC3)nc(=O)c2c1
[1]
  MIC: 0.96 µM (≈ 0.461 µg/mL)

## CCCCS(=O)(=O)N1CCN(c2nc(=O)c3cc(S(C)(=O)=O)cc([N+](=O)[O-])c3s2)CC1
[1]
  MIC: 0.09 µM (≈ 0.0442 µg/mL)
[2]
  pIC50: 5.85

## CS(=O)(=O)c1cc([N+](=O)[O-])c2sc(N3CCCN(S(=O)(=O)c4cccs4)CC3)nc(=O)c2c1
[1]
  MIC: > 3.5 µM

## CS(=O)(=O)c1cc([N+](=O)[O-])c2sc(N3CCN(Cc4ccccc4)CC3)nc(=O)c2c1
[1]
  MIC: 0.21 µM (≈ 0.0967 µg/mL)

## CS(=O)(=O)c1cc([N+](=O)[O-])c2sc(N3CCN(S(=O)(=O)c4cccs4)CC3)nc(=O)c2c1
[1]
  MIC: 108 µM (≈ 55.8 µg/mL)

## CS(=O)(=O)c1cc([N+](=O)[O-])c2sc(N3CCN(S(=O)(=O)c4ccccc4)CC3)nc(=O)c2c1
[1]
  MIC: 0.33 µM (≈ 0.168 µg/mL)

## CC(C)CN1CCN(c2nc(=O)c3cc(S(C)(=O)=O)cc([N+](=O)[O-])c3s2)CC12CC2
[1]
  MIC: 0.17 µM (≈ 0.0769 µg/mL)

## CCS(=O)(=O)N1CCN(c2nc(=O)c3cc(S(C)(=O)=O)cc([N+](=O)[O-])c3s2)CC1
[1]
  MIC: 0.26 µM (≈ 0.12 µg/mL)
[2]
  pIC50: 5.17

## CCCCS(=O)(=O)N1CCCN(c2nc(=O)c3cc(S(C)(=O)=O)cc([N+](=O)[O-])c3s2)CC1
[1]
  MIC: > 2 µM

## CS(=O)(=O)c1cc([N+](=O)[O-])c2sc(N3CCCN(Cc4ccccc4)CC3)nc(=O)c2c1
[1]
  MIC: 0.48 µM (≈ 0.228 µg/mL)

## CCCCCN1CCCN(c2nc(=O)c3cc(S(C)(=O)=O)cc([N+](=O)[O-])c3s2)CC1
[1]
  MIC: 0.49 µM (≈ 0.223 µg/mL)

## O=c1nc(N2CCN(CC3CCCCC3)CC2)sc2c([N+](=O)[O-])cc(C(F)(F)F)cc12 [MACOZINONE]
[8]
  solubility thermodynamic: < 0.01 µg/mL
[3]
  fraction unbound: < 0.001
[4]
  half-life at 1 µM: 62.1 min
[5]
  half-life at 1 µM: 31.5 min
[6]
  CLint scaled at 1 µM: 28.1 mL/min/kg
[7]
  CLint scaled at 1 µM: 174 mL/min/kg
